Test results: EP2058306A1, “Heteroaryl-substituted 2-pyridinyl-methylamine derivatives” (SCHWARZ PHARMA AG, priority 2007, dated 2009)
Like-named read-outs stand apart in the source and are kept apart here.

Key:
dopamine D1 receptor = molecular target: T1, dopamine D1 receptor (Sus scrofa, UniProt P50130); assay: radioligand binding assay, dopamine D1 receptor, [3H]SCH 23390
T1 construct: native membrane preparations from porcine striatum; from tissue; host or cells: porcine striatum
Description: (§1) Biological activity of the compounds has been determined in radioligand binding assays. These experiments have been done according to methods which are described in literature (Hübner, H. et al., J. Med. Chem. (2000), 43, 7562). For the determination of binding affinity to the receptors of the dopamine D2 family membranes were established carrying the human D2long, D2short, D3 or D4.4 receptor subtype stably expressed in Chinese hamster ovary cell lines. In principle, the binding experiments started when incubating an appropriate amount of membrane with the radioligand [^3H]spiperone and the particular test compounds used in a wide range of different concentrations from subnanomolar up to micromolar ones. In the same way, binding affinities of the test compounds to the dopamine D1 receptor were determined when using native membrane preparations from porcine striatum and the D1 selective radioligand [^3H]SCH 23390.
(§2) The results of the binding experiments are summarized in Table 1 as mean values of two to five individual experiments each done in triplicate and expressed as Ki values in nM.

human D2long, D2short = human D2long, D2short (Homo sapiens, UniProt P14416); assay: biochemical; assay type: binding
Protocol: as §1, with “These” for “Biological activity of the compounds has been determined in radioligand binding assays. These”, “ones.” for “ones. In the same way, binding affinities of the test compounds to the dopamine D1 receptor were determined when using native membrane preparations from porcine striatum and the D1 selective radioligand [^3H]SCH 23390.”

human D3 = human D3 (Homo sapiens, UniProt P35462); assay: radioligand binding assay, dopamine D3 receptor, [3H]spiperone
Protocol: as §1, with “These” for “Biological activity of the compounds has been determined in radioligand binding assays. These”, “ones.” for “ones. In the same way, binding affinities of the test compounds to the dopamine D1 receptor were determined when using native membrane preparations from porcine striatum and the D1 selective radioligand [^3H]SCH 23390.”

human D4.4 = molecular target: T2, human D4.4 (Homo sapiens, UniProt P21917); assay: radioligand binding assay, dopamine D4.4 receptor, [3H]spiperone
T2 sequence (P21917 1-419): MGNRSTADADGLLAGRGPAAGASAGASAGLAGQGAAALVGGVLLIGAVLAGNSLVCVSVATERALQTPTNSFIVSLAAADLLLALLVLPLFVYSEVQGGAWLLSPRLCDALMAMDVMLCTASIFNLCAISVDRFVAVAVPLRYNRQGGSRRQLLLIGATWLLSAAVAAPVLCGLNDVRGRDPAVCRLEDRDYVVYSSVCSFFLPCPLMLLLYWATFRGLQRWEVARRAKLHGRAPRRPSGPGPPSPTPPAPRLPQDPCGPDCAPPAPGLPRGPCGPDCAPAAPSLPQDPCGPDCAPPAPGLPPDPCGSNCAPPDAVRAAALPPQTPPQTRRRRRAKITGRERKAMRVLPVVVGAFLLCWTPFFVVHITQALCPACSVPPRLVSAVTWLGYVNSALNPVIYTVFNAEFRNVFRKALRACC
Description: as §1, §2

5-HT1A = molecular target: T3, 5-HT1A (Sus scrofa, UniProt A0A4X1UTF5); assay: radioligand binding assay, serotonin 5-HT1A receptor, [3H]WAY 100635
T3 construct: membrane preparations from porcine cortex; from tissue; host or cells: porcine cortex
T3 sequence (A0A4X1UTF5 1-422): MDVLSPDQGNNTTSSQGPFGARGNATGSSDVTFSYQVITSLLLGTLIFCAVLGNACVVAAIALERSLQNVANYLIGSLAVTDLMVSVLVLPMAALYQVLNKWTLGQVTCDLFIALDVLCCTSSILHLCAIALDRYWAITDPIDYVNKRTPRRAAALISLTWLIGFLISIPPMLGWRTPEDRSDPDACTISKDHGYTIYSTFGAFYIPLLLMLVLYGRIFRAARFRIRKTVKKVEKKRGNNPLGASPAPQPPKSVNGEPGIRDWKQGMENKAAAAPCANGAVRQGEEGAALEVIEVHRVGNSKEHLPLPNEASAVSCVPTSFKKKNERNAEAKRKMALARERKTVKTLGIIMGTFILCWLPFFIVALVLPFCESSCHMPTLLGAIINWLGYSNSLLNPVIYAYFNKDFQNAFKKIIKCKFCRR
Protocol: (§3) The investigation of receptor binding to the serotonin and adrenergic receptors was done according to a published procedure (Heindl, C. et al., Tetrahedron: Asymmetry (2003), 14, 3141-3152). In detail, for the determination of the binding properties to serotonin receptors membrane preparations from porcine cortex was incubated with the 5-HT1A selective radioligand [^3H]WAY 100635 or with the 5-HT2 selective compound [^3H]ketanserin. The measurement of alpha-1 and alpha-2 receptor binding was achieved when utilizing porcine cortical membranes and the selective radioligands [^3H]prazosin (for alpha-1) and [^3H]RX821002 in an assay similar to that described above.
as §2

5-HT2 = molecular target: T4, 5-HT2 (Sus scrofa, UniProt P50129); assay: radioligand binding assay, serotonin 5-HT2 receptor, [3H]ketanserin; set-up: species or system porcine
T4 construct: membrane preparations from porcine cortex; from tissue; host or cells: porcine cortex

alpha-1 = assay: radioligand binding assay, adrenergic alpha-1 receptor, [3H]prazosin; settings: porcine cortical membranes, mean of two to five experiments in triplicate, read-out: Ki alpha1
Protocol: as §3, §2

[1] = porcine striatum membranes, mean of two to five experiments in triplicate, read-out: Ki D1
[2] = CHO cell membranes, [3H]spiperone; mean of two to five experiments in triplicate; read-out: Ki D2
[3] = CHO cell membranes, mean of two to five experiments in triplicate, read-out: Ki D3
[4] = CHO cell membranes, mean of two to five experiments in triplicate, read-out: Ki D4.4
[5] = porcine cortex membranes, mean of two to five experiments in triplicate, read-out: Ki 5-HT1a
[6] = porcine cortex membranes, [3H]ketanserin, mean of two to five experiments in triplicate, read-out: Ki 5-HT2

T1 sequence (P50130 whole entry): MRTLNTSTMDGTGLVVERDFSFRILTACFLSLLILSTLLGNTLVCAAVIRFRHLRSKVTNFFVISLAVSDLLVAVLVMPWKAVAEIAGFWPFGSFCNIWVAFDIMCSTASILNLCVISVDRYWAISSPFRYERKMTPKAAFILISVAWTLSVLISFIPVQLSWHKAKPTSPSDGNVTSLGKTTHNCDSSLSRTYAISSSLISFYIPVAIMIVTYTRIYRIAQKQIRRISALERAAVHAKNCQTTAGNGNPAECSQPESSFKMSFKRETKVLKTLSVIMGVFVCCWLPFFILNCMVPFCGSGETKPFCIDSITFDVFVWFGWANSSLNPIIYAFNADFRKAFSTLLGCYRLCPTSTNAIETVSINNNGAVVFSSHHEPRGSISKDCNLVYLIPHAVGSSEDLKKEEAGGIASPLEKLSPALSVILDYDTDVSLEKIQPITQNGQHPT
Sequence of human D2long, D2short (P14416 whole entry): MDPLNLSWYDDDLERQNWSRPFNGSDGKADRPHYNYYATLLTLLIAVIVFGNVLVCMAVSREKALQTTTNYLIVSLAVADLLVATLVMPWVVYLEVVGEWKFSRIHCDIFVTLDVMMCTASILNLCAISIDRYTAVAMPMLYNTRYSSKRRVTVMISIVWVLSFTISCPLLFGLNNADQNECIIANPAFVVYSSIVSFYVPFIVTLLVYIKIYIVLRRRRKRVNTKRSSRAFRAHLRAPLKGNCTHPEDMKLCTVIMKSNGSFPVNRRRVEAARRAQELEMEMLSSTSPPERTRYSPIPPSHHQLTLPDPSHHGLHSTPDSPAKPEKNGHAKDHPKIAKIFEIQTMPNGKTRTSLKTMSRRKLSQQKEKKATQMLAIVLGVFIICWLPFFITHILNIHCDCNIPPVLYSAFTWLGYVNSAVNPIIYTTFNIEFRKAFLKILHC
T4 sequence (P50129 whole entry): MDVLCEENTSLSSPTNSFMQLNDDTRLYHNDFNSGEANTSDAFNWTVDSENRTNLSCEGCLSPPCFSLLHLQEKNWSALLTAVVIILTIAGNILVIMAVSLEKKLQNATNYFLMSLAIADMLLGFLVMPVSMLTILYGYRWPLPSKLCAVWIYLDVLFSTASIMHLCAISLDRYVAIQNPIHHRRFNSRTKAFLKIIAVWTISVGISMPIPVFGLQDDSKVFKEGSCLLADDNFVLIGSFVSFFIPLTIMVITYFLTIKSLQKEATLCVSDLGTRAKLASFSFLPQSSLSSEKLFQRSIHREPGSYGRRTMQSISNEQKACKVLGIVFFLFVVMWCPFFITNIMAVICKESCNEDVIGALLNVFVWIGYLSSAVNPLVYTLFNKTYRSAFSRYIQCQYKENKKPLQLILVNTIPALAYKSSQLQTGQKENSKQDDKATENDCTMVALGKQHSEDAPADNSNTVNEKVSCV
Sequence of human D3 (P35462 whole entry): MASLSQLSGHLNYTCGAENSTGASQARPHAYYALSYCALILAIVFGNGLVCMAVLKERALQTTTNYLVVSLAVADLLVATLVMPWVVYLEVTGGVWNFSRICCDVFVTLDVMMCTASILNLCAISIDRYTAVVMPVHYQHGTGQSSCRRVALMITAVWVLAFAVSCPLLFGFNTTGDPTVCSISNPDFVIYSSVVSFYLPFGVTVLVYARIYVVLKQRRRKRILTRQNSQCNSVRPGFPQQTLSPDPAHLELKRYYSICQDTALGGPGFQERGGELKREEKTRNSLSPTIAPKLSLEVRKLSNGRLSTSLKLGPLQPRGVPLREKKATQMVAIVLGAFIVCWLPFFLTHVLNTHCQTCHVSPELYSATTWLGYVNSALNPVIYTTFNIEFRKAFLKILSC

Cc1ccc(CNCC2(F)CCN(C(=O)c3ccsc3Br)CC2)nc1 [Example E19, 2-Bromothien-3-yl-[4-fluoro-4-[[(5-methylpyridin-2-ylmethyl)amino]methyl]piperidin-1-yl]-methanone]
Ki (dopamine D1 receptor; [1]): > 5 µM
Ki (human D2long, D2short; [2]): > 5 µM
Ki (human D3; [3]): > 5 µM
Ki (human D4.4; [4]): 0.501 to 5 µM
Ki (5-HT1A; [5]): < 0.05 µM
Ki (5-HT2; [6]): > 5 µM
Ki (alpha-1): 0.501 to 5 µM

COc1cscc1C(=O)N1CCC(F)(CNCc2ccc(C)cn2)CC1 [Example E20, [4-Fluoro-4-[[(5-mothylpyridin-2-ylmothyl)amino]methyl]piperidin-1-yl]-4-methoxythien-3-yl-methanone]
Ki (dopamine D1 receptor; [1]): > 5 µM
Ki (human D2long, D2short; [2]): > 5 µM
Ki (human D3; [3]): > 5 µM
Ki (human D4.4; [4]): 0.501 to 5 µM
Ki (5-HT1A; [5]): 0.05 to 0.5 µM
Ki (5-HT2): > 5 µM
Ki (alpha-1): > 5 µM

COc1c(C(=O)N2CCC(F)(CNCc3ccc(C)cn3)CC2)csc1Cl [Example E21, 5-Chloro-4-methoxythien-3-yl-[4-fluoro-4-[[(5-methylpyridin-2-ylmethyl)amino]methyl]piperidin-1-yl]-methanone]
Ki (dopamine D1 receptor; [1]): > 5 µM
Ki (human D2long, D2short; [2]): > 5 µM
Ki (human D3; [3]): > 5 µM
Ki (human D4.4; [4]): 0.501 to 5 µM
Ki (5-HT1A; [5]): < 0.05 µM
Ki (5-HT2; [6]): > 5 µM
Ki (alpha-1): 0.501 to 5 µM

COc1c(C(=O)N2CCC(F)(CNCc3ccc(C)cn3)CC2)csc1Br [Example E22, 5-Bromo-4-methoxythion-3-yl-[4-fluoro-4-[[(5-methylpyridin-2-ylmethyl)amino]methyl]piperidin-1-yl]-methanone]
Ki (dopamine D1 receptor; [1]): > 5 µM
Ki (human D2long, D2short; [2]): > 5 µM
Ki (human D3; [3]): > 5 µM
Ki (human D4.4; [4]): 0.501 to 5 µM
Ki (5-HT1A; [5]): < 0.05 µM
Ki (5-HT2): > 5 µM
Ki (alpha-1): 0.501 to 5 µM

Cc1ccc(CNCC2(F)CCN(C(=O)c3cc4ccccc4s3)CC2)nc1 [Example E23, Benzo[b]thien-2-yl-[4-fluoro-4-[[(5-methyl-pyridin-2-ylmethyl)amino]methyl]-piperidin-1-yl]-methanone]
Ki (dopamine D1 receptor; [1]): > 5 µM
Ki (human D2long, D2short; [2]): > 5 µM
Ki (human D3; [3]): > 5 µM
Ki (human D4.4; [4]): 0.501 to 5 µM
Ki (5-HT1A; [5]): 0.05 to 0.5 µM
Ki (5-HT2; [6]): > 5 µM
Ki (alpha-1): 0.501 to 5 µM

Cc1ccc(CNCC2(F)CCN(C(=O)c3cc(Br)c(Br)o3)CC2)nc1 [Example E32, 4,5-Dibromofuran-2-yl-[4-fluoro-4-[[(5-mothylpyridin-2-ylmethyl)amino]methyl]piperidin-1-yl]-methanone]
Ki (5-HT1A; [5]): < 0.05 µM
Ki (5-HT2; [6]): > 5 µM

Cc1ccc(CNCC2(F)CCN(C(=O)c3coc4ccccc34)CC2)nc1 [Example E36]
Ki (dopamine D1 receptor; read-out: Ki D1, porcine striatum membranes, mean of two to five experiments in triplicate): > 5 µM
Ki (human D2long, D2short; read-out: Ki D2; CHO cell membranes, [3H]spiperone; mean of two to five experiments in triplicate): > 5 µM
Ki (human D3; read-out: Ki D3, CHO cell membranes, mean of two to five experiments in triplicate): > 5 µM
Ki (human D4.4; read-out: Ki D4.4, CHO cell membranes, mean of two to five experiments in triplicate): 0.501 to 5 µM
Ki (5-HT1A; read-out: Ki 5-HT1a, porcine cortex membranes, mean of two to five experiments in triplicate): < 0.05 µM

Cc1ccc(CNCC2(F)CCN(C(=O)c3ccc[nH]3)CC2)nc1 [Example E37, [4-Fluoro-4-[[(5-methylpyridin-2-ylmethyl)amino]methyl]piperidin-1-yl]-pyrrol-2-yl-methanone]
Ki (5-HT1A; [5]): 0.501 to 5 µM
Ki (5-HT2; [6]): > 5 µM

Cc1ccc(CNCC2(F)CCN(C(=O)c3cc[nH]n3)CC2)nc1 [Example E38]
Ki (5-HT1A; [5]): 0.501 to 5 µM
Ki (5-HT2): > 5 µM
